Results reported in patent publication US20070112068A1, “Nitrile compound and its use in pest control” (priority 2003, published 2007).

Assays:
Assay type in all cases: in vivo
Formica fusca japonica [1] = assay: Experimental Example 20: poison bait, Formica fusca japonica; settings: poison bait: 1 ml of 0.1% by weight acetone solution per 1 g unrefined sugar; 0.5 g bait; after 48 hours
Description: 1 ml of a 0.1% by weight solution of the present compound (31) in acetone was added dropwise to 1 g of a commercially available powdery unrefined sugar, mixed thoroughly and then air-dried to obtain a poison bait. A cotton ball impregnated with water and 0.5 g of the poison bait on an aluminum dish were placed in a plastic cup (860 mL) containing 10 imagoes of Formica fusca japonica. After 48 hours, the number of surviving Formica fusca japonica was examined and the death rate of the pest was calculated.

Culex pipiens pallens = assay: Experimental Example 10: treated filter paper in Peet-Grady chamber, Culex pipiens pallens; settings: 5 ml of 1% (w/v) acetone solution on filter paper; 1.8 m Peet-Grady chamber; female imagoes; 1 hour exposure, 24 hours later
Description: (§1) A 1% (w/v) solution of the present compound (31) in acetone was prepared. Onto a filter paper with 10 cm×25 cm, 5 ml of the solution was added dropwise uniformly and then air-dried. This filter paper was suspended from the center of the ceiling center of a Peet-Grady chamber with 1.8 m (width)×1.8 m (depth)×1.8 m (height) and therein about 50 female imagoes of Culex pipiens pallens were released. After 1 hour, all test pests were collected, put into a plastic cup together with absorbent cotton impregnated with 5% sugar water, and then left at 25° C. After 24 hours, the number of surviving Culex pipiens pallens was examined and the death rate was calculated.

Halyomorpha mista = assay: Experimental Example 24: direct oil spray in CSMA chamber, Halyomorpha mista; settings: 0.4 ml of 5% (w/v) oil sprayed directly; after 72 hours
Description: 1.5 g of the present compound (31) is dissolved in 30 mL of a mixed solvent of 90 parts by weight of Isopar M (isoparaffin; the registered trade name of Exxon Chemical) and 10 parts by weight of dichloromethane to prepare a 5% (w/v) oil. A plastic cup (860 mL) containing 10 imagoes of Halyomorpha mista is covered with a nylon net (mesh width: 2 mm) and then placed on the bottom of a CSMA chamber (width: 46 cm, depth: 46 cm, height: 70 cm). 0.4 ml of the oil is directly sprayed on the test Halyomorpha mista from the upper side of the CSMA chamber. After 10 seconds from spraying, the cup containing Halyomorpha mista is removed, and feed and water are placed in the cup.

Blattella germanica = assay: Experimental Example 21: poison bait, Blattella germanica; settings: poison bait: 3 ml of 0.5% by weight acetone solution per 3 g animal feed; 1 g bait; after 7 days
Description: 3 ml of a 0.5% by weight solution of the present compound (31) in acetone is added dropwise to 3 g of animal powdery feed, mixed thoroughly, and then air-dried to obtain a poison bait. 1 g of this poison bait is placed on an aluminum dish and the dish is placed in a plastic cup (860 mL) containing 20 imagoes (10 males and 10 females) of Blattella germanica. The pest is given water and kept at 25° C. After 7 days, the number of surviving Blattella germanica is examined and the activity of the poison bait is obtained.

Musca domestica = assay: Experimental Example 11: treated filter paper in Peet-Grady chamber, Musca domestica; settings: 5 ml of 1% (w/v) acetone solution on filter paper; 1.8 m Peet-Grady chamber; 1 hour exposure, 24 hours later
Description: as §1, with “50” for “50 female”, “Musca domestica” for “Culex pipiens pallens”

[2] = test system: Haemaphysalis longicornis; assay: Experimental Example 7: treated polypropylene film pouch, Haemaphysalis longicornis; settings: 0.22 ml of 0.25% (w/v) methanol solution on film; 10 young mites; after 48 hours
Description: A 0.25% (w/v) solution of the present compound (31) in methanol was prepared. Onto one side of a polypropylene film having 5.7 cm (height)×16.5 cm (width), 0.22 ml of the solution was added dropwise uniformly (except for 5 mm width from the edges of the film) and then air-dried. Thereafter, the film was folded in half widthwise in a way that the side containing the present compound became the inner face of the folded film. Then, the two longer sides (5 mm width each) of the folded film were heat-sealed to obtain a pouch. 10 young mites of Haemaphysalis longicornis were put into the polypropylene film pouch. The opening part of the polypropylene film pouch was closed with a clip. After 48 hours, the number of surviving Haemaphysalis longicornis was examined and the death rate of the pest was calculated.

Clogmia albipunctata = assay: Experimental Example 9: treated filter paper suspended in glass chamber, Clogmia albipunctata; settings: 2.5 ml of 2% (w/v) acetone solution on filter paper; 70 cm cube chamber; 2 hours exposure, 24 hours later
Description: A 2% (w/v) solution of the present compound (31) in acetone was prepared. Onto a filter paper with 10 cm×12.5 cm, 2.5 ml of the solution was added dropwise uniformly and then air-dried. This filter paper was suspended from the center of the ceiling of a glass chamber with 70 cm (width)×70 cm (depth)×70 cm (height) and therein 20 imagoes of Clogmia albipunctata were released. After 2 hours, all test pests were collected, put into a plastic cup together with absorbent cotton impregnated with 5% sugar water, and then left at 25° C. After 24 hours, the number of surviving Clogmia albipunctata was examined and the death rate was calculated (2 repetitions).

Formica fusca japonica [3] = assay: Experimental Example 19: direct oil spray in CSMA chamber, Formica fusca japonica; settings: 0.4 ml of 0.0625% (w/v) oil sprayed directly; after 72 hours
Description: 18.8 mg of the present compound (31) was dissolved in 30 mL of a mixed solvent of 90 parts by weight of Isopar M (isoparaffin, the registered trade name of Exxon Chemical) and 10 parts by weight of dichloromethane to prepare a 0.0625% (w/v) oil. A plastic cup (200 mL) containing 10 imagoes of Formica fusca japonica was placed on the bottom of a CSMA chamber (width: 46 cm, depth: 46 cm, height: 70 cm). 0.4 ml of the oil was directly sprayed on the test Formica fusca japonica from the upper side of the CSMA chamber. After 10 seconds from spraying, the container containing Formica fusca japonica was removed. Formica fusca japonica was transferred to another plastic container (200 mL) and left together with feed and water at 25° C. After 72 hours from pesticide treatment, Formica fusca japonica was observed and the death rate of the pest was calculated.

For `N#CC(C#N)(CCC(F)(F)F)CC(F)(F)C(F)(F)C(F)(F)C(F)F` [(31)], the “death rate of Formica fusca japonica” value (Formica fusca japonica [1]) was 100%, the “death rate of the pest” value (Culex pipiens pallens) was 86% and the pesticidal effect (Halyomorpha mista) was “pesticidal effect on Halyomorpha mista is confirmed”. For the same compound, the “activity of the poison bait” value (Blattella germanica) was “sufficient pesticidal effect”, the “death rate of the pest” value (Musca domestica) was 92% and the “death rate of the pest” value [2] was 100%. For the same compound, the “death rate of the pest” value (Clogmia albipunctata) was 83% and the “death rate of the pest” value (Formica fusca japonica [3]) was 100%.
